Laboratory results: patent US11725187B2, “Selection of human hematopoetic stem cells using EPCR” (UNIVERSITE DE MONTREAL, priority 2016, dated 2023)

Tested on: EPCR
Test: EPCR surface expression on cultured CD34+ cells by flow cytometry
Experimental: Fresh or cultured CB cells were labelled or sorted for different HSPC phenotypes using the following antibodies. […] Cells were analyzed on a BD Canto flow cytometer, and cell sorting (under low pressure conditions) was conducted on a BD Aria II cell sorter.

| Structure (SMILES) | increase in proportion of EPCR+ cells / EPCR expression (CB, mPB or BM CD34+ cells, 7 days, UM171 38 nM, SR1 1000 nM (FIG. 2)) | enrichment / expansion of EPCR+ population of cells (CD34+ cells (FIG. 17)) |
| --- | --- | --- |
| CC(C)n1cnc2c(NCCc3ccc(O)cc3)nc(-c3csc4ccccc34)nc21 [SR1] | small increase |  |
| Nc1cccc2c1CN(C1CCC(=O)NC1=O)C2=O (centres unmarked) [lenalidomide] |  | enriches |
